Consider 58 compounds from the METLIN SMRT retention time set (Domingo-Almenara et al. 2019).

SMILES strings stand for the structures.

This series is described as follows: gradient 5% acetonitrile 3 min, to 50% in 2 min, to 85% in 15 min, held 3 min, 100 µL/min. As to conditions: column: Zorbax Extend-C18 2.1 x 50 mm; eluents: water / acetonitrile, 0.1% formic acid. In a few lines:
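The system's dead and dwell volumes were 40 μL and 900 μL, with a Zorbax Extend-C18 column (2.1 × 50 mm, 1.8 μm) run at 100 μL/min in water and acetonitrile containing 0.1% formic acid each. Pure standards were analyzed in mixtures of ~100 molecules by HPLC–quadrupole time-of-flight mass spectrometry in positive and negative ionization mode. Retention time was assigned from computationally picked, manually inspected adduct peaks.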
Compound `Cn1nc(C2CCCN(C(=O)Nc3ccc4c(c3)OCCO4)C2)n(C2CCCC2)c1=O` (stereo not drawn) had an RP-LC retention time of 718 s. For `Fc1ccc2nc(Nc3nc(-c4ccncc4)cs3)sc2c1` the value was 588 s; for `Cc1ccc(Cn2cc(-c3noc(C4CCCC4)n3)nn2)cc1`, 1070 s; for `CCCS(=O)(=O)N1CCC(Cc2nc(-c3cccnc3)n[nH]2)C1` (stereo not drawn), 583 s. The result for `Cc1ccccc1-c1cc(C(N)=O)c2ccccc2n1` reads 718 s; that for `Cc1cc(NC(=O)Cn2cccc2-c2nc(-c3ccc4c(c3)OCO4)no2)n[nH]1`, 786 s; that for `COc1ccc(-c2nc(C)cc3nn(CC(=O)Nc4ccc(C)c(C)c4)c(=O)n23)cc1`, 895 s. The result for `Cc1occc1-c1nnc2sc(COc3ccc(F)cc3)nn12` reads 939 s.

Compound `CC1CCCN(CC2CCN(S(=O)(=O)c3ccc(C#N)cc3)CC2)C1` (stereo not drawn) returned an RP-LC retention time of 644 s. For `CCc1ccc(-c2noc(Cn3cnc4c(cnn4-c4ccc(OC)cc4)c3=O)n2)cc1` the value was 1130 s; for `c1ccc(-c2noc(-c3ccc(N4CCN(c5ccccn5)CC4)nc3)n2)cc1`, 768 s; for `Cc1ccc(F)c(NC(=O)c2cnc3c(c2)c(=O)n(C)c(=O)n3-c2ccccc2)c1`, 904 s. For `COc1ccccc1-c1noc(C2CCCN2C(=O)c2cccc(OC)c2OC)n1` (stereo not drawn) the value was 993 s. `COc1ccccc1OCC(O)Cn1c(C2CC(=O)N(c3ccccc3)C2)nc2ccccc21` (stereo not drawn) displayed an RP-LC retention time of 736 s.

`CC(C)c1noc(C2(NC(=O)c3ccc(C(F)(F)F)cc3)CCCCC2)n1` displayed an RP-LC retention time of 1130 s. `COc1ccc(NC(=O)CSc2nccnc2-n2nc(C)cc2C)cc1OC` registered an RP-LC retention time of 702 s. The result for `CCn1nccc1C(=O)N1c2ccccc2CC1c1nnc(C2CC2)o1` (stereo not drawn) reads 755 s. Compound `CC(=O)N1CCCSc2ccc(S(=O)(=O)N3CCN(c4cccc(C)c4)C(C)C3)cc21` (stereo not drawn) yielded an RP-LC retention time of 982 s. Compound `CCCN(Cc1ccc(OCC)cc1)Cc1cc(=O)n2cc(Cl)ccc2n1` gave an RP-LC retention time of 686 s.

For `Cc1cccc2cc(-c3noc(C(C)C)n3)c(NCCc3ccc(S(N)(=O)=O)cc3)nc12`, the RP-LC retention time came to 1270 s. For `CSc1cccc(NC(=O)c2cn3c(n2)CSCC3)c1` the value was 763 s; for `O=C(Cc1cccs1)N1CCN(c2ccc(=O)n(-c3cccc(Cl)c3)n2)CC1`, 822 s; for `COc1ccc(NC(=O)Cn2c(=O)n(-c3ccc(C)cc3)c3ncccc32)c(C)c1`, 833 s. For `COc1ccccc1NC(=O)N1CCN(Cc2nc3cccnc3n2-c2ccccc2)CC1` the value was 661 s; for `CCCNC(=O)C1CCN(c2ccc(SCC(=O)Nc3ccc(Cl)cc3F)nn2)CC1`, 688 s; for `Cn1nc2n(c1=O)CCN(C(=O)CC1=CCCCC1)CC2`, 656 s. The result for `COc1ccc(NC(=O)Cn2c(=O)n(-c3ccccc3)c(=O)c3c2cc(C)n3C)cc1Cl` reads 842 s; that for `CCc1nn(C)c(=O)c2cc(S(=O)(=O)NCc3ccccc3F)cn12`, 860 s.

With `O=C(Cn1ccnc1-c1ccnc(N2CCCC2)c1)NCc1ccc(Cl)cc1`, the RP-LC retention time was found to be 601 s.

On to `Cc1cc(N(CCCl)CCCl)ccc1/C=N/NC(=O)Cc1cc(=O)oc2cc(O)ccc12`, for which the RP-LC retention time worked out at 862 s. For `COC(=O)c1c(C)[nH]c(C(=O)N2CCCC(C(=O)NCc3ccc4c(c3)OCO4)C2)c1C` (stereo not drawn) the value was 720 s; for `CS(=O)(=O)N(C1CCOCC1)C1CN(C(=O)CCc2c[nH]c3ccccc23)C1`, 678 s. For `Cc1nc(-c2ccccc2)nc2c1CCC(=O)N2Cc1ccco1` the value was 1000 s; for `COCCCNC(=O)c1cc(-c2ccc(OC)cc2)nc2n[nH]c(-c3ccc(OC)cc3)c12`, 1140 s; for `O=C(NC1CCN(c2cc(-c3ccc(F)cc3)[nH]n2)C1)c1ccccc1Cl` (stereo not drawn), 721 s. In the case of `O=C([C@@H]1C[C@H](F)CN1S(=O)(=O)c1ccc(F)c(Cl)c1)N1CCCCC1`, the RP-LC retention time worked out at 875 s. `COCCN1C(=O)Cc2ccccc2C1C(=O)NCc1cccc(Cl)c1` (stereo not drawn) gave an RP-LC retention time of 766 s.

`CCCS(=O)(=O)N1CCc2c(c(-c3nncn3Cc3ccccc3)nn2C)C1` returned an RP-LC retention time of 769 s. For `CCOC(=O)c1nc(Nc2ccc(C(=O)OC(C)C)cc2)c2ccccc2n1` the value was 989 s.

Take `CN1CCCN(C(=O)Nc2ccc3c(c2)OCCO3)c2ccccc21`: the RP-LC retention time came out at 649 s. For `CCC(=O)N(C)c1nc2ccccc2n(CC(=O)Nc2c(C)cc(C)cc2C)c1=O` the value was 822 s; for `CC(C)C(=O)NCc1cnn(-c2ccc(C(=O)N(C)Cc3ccco3)cc2)c1`, 696 s. For `Cc1cn(C)c(CC(=O)NCCCN2CCCC(C)C2)c1C(=O)O` (stereo not drawn) the value was 586 s. `Cc1ccc(S(=O)(=O)CCc2nc(-c3cccc(-c4ccnn4C)c3)no2)cc1` came in with an RP-LC retention time of 910 s. For `O=C(c1ccc2c(c1)N(Cc1ccccc1)C(=O)CO2)N1CCc2ccccc21` the value was 980 s; for `CCOC(=O)CNC(=O)NCCc1nc2cccnc2n1Cc1ccccc1`, 648 s. Take `Cc1ccc(NC(=O)Nc2cnn(-c3ncncc3N3CCOCC3)c2)cc1Cl`: the RP-LC retention time came out at 695 s. For the compound `CCn1c(CN2CCN(S(C)(=O)=O)CC2)nc2cc(NC(C)=O)ccc21`, the RP-LC retention time is 588 s. The result for `Cc1ccc(NC(=O)C2CCCN(c3nc4ccsc4c(=O)n3-c3ccc(C)cc3)C2)cc1` (stereo not drawn) reads 996 s. For `CCc1nccn1Cc1nc(-c2ccc(OC)c(OC)c2)no1` the value was 618 s; for `Cc1nc2cc(N3CC(C(=O)NCc4ccc(F)c(Cl)c4)CC3=O)ccc2o1` (stereo not drawn), 750 s. For the compound `Cc1ccc(S(=O)(=O)NCC(c2cccnc2)c2cn(C)c3ccccc23)cc1C` (stereo not drawn), the RP-LC retention time was found to be 790 s.

`O=C(CCCSc1ccc(NC(=O)c2cccs2)nn1)Nc1cnc2ccccc2c1` showed an RP-LC retention time of 706 s. For `CC(C)c1ccc(NC(=O)C2CCN(S(=O)(=O)c3ccc4c(c3)CCCC(=O)N4)CC2)cc1` the value was 883 s. The result for `COc1cc(NC(=O)COc2cc(C)nc(N3CCN(c4ccccc4)CC3)n2)cc(OC)c1` reads 821 s; that for `CN(CCNC(=O)c1ccc2c(c1)NC(=O)C1CCCCN21)Cc1ccccc1` (stereo not drawn), 630 s; that for `COc1ccc(C2CCN(C(=O)Nc3cccc(C(F)(F)F)c3)C2)cc1` (stereo not drawn), 954 s. For `CC(C)N1CCCn2cc(S(=O)(=O)Nc3ccc(F)cc3)cc2C1=O` the value was 754 s.
